Results on 14 molecules are retold here after US8450527B2, “Amine derivative compounds for treating ophthalmic diseases and disorders” (Acucela Inc., priority 2007, dated 2013).

One assay deals with T1, visual cycle isomerase (Bos taurus, UniProt Q28175).
T1 construct: Bovine Retinal Pigment Epithelium (RPE) microsome membranes were the source of a visual cycle isomerase; from tissue; host or cells: bovine retinal pigment epithelium microsome membranes; CRALBP made in E. coli
T1 sequence (Q28175 2-533 limits assumed): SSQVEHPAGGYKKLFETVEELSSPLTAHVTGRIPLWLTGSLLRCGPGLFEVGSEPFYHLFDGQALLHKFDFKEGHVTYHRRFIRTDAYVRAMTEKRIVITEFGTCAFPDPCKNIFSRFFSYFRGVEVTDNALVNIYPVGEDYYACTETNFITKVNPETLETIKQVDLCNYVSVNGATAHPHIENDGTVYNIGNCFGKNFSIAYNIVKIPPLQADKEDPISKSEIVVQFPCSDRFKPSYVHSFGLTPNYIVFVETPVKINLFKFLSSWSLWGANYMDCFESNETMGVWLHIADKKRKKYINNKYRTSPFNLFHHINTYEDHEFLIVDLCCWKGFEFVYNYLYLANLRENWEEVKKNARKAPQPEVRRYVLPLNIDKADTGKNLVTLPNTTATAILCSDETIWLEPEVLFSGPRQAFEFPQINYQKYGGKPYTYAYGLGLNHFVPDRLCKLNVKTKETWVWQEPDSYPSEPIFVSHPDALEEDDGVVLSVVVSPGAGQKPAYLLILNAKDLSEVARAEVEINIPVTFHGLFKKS
The assay can be described thus: In vitro isomerase inhibition assay, bovine RPE microsome membranes. Type of assay: biochemical. Particulars: inhibition of 11-cis retinol formation; values given as ranges. As for the experimental part: The capability of amine derivative compounds to inhibit the activity of a visual cycle isomerase was determined
Isomerase inhibition reactions were performed essentially as described (Stecher et al., J. Biol. Chem. 274:8577-85 (1999); see also Golczak et al., Proc. Natl. Acad. Sci. USA 102:8162-67 (2005)). Bovine Retinal Pigment Epithelium (RPE) microsome membranes were the source of a visual cycle isomerase.
Bovine RPE microsome membrane extracts were prepared according to methods described (Golczak et al., Proc. Natl. Acad. Sci. USA 102:8162-67 (2005)) and stored at −80° C. Crude RPE microsome extracts were thawed in a 37° C. water bath, and then immediately placed on ice. 50 ml crude RPE microsomes were placed into a 50 ml Teflon-glass homogenizer (Fisher Scientific, catalog no. 0841416M) on ice, powered by a hand-held DeWalt drill, and homogenized ten times upand down on ice under maximum speed. This process was repeated until the crude RPE microsome solution was homogenized. The homogenate was then subjected to centrifugation (50.2 Ti rotor (Beckman, Fullerton, Calif.), 13,000 RPM; 15360 Rcf) for 15 minutes at 4° C. The supernatant was collected and subjected to centrifugation at 42,000 RPM (160,000 Rcf; 50.2 Ti rotor) for 1 hour at 4° C. The supernatant was removed, and the pellets were suspended in 12 ml (final volume) cold 10 mM MOPS buffer, pH 7.0. The resuspended RPE membranes in 5 ml aliquots were homogenized in a glass-to-glass homogenizer (Fisher Scientific, catalog no.K885500-0021) to high homogeneity. Protein concentration was quantified using the BCA protein assay according to the manufacturer's protocol (Pierce, Rockford, Ill.). The homogenized RPE preparations were stored at −80° C.
Recombinant human apo cellular retinaldehyde-binding protein (CRALBP) was cloned and expressed according to standard methods in the molecular biology art (see Crabb et al., Protein Science 7:746-57 (1998); Crabb et al., J. Biol. Chem. 263:18688-92 (1988)). Briefly, total RNA was prepared from confluent ARPE^19 cells (American Type Culture Collection, Manassas, Va.), cDNA was synthesized using an oligo(dT)12-18 primer, and then DNA encoding CRALBP was amplified by two sequential polymerase chain reactions (see Crabb et al., J. Biol. Chem. 263:18688-92 (1988); Intres, et al., J. Biol. Chem. 269:25411-18 (1994); GenBank Accession No. L34219.1). The PCR product was sub-cloned into pTrcHis2-TOPO TA vector according to the manufacturer's protocol (Invitrogen Inc., Carlsbad, Calif.; catalog no. K4400-01), and then the sequence was confirmed according to standard nucleotide sequencing techniques. Recombinant 6×His-tagged human CRALBP was expressed in One Shot TOP 10 chemically competent E. coli cells (Invitrogen), and the recombinant polypeptide was isolated from E. coli cell lysates by nickel affinity chromatography using nickel (Ni) Sepharose XK16-20 columns for HPLC (Amersham Bioscience, Pittsburgh, Pa.; catalog no.17-5268-O2). The purified 6×His-tagged human CRALBP was dialyzed against 10 mM bis-tris-Propane (BTP) and analyzed by SDS-PAGE. The molecular weight of the recombinant human CRALBP was approximately 39 kDal.
Amine derivative compounds and control compounds were reconstituted in ethanol to 0.1 M. Ten-fold serial dilutions (10^−2, 10^−3, 10^−4, 10^−5, 10^−6 M) in ethanol of each compound were prepared for analysis in the isomerase assay.
The isomerase assay was performed in 10 mM bis-tris-propane (BTP) buffer, pH 7.5, 0.5% BSA (diluted in BTP buffer), 1 mM sodium pyrophosphate, 20 μM all-trans retinol (in ethanol), and 6 μM apo-CRALBP. The test compounds (2 μl) (final 1/15 dilution of serial dilution stocks) were added to the above reaction mixture to which RPE microsomes were added. The same volume of ethanol was added to the control reaction (absence of test compound). Bovine RPE microsomes (9 μl) (see above) were then added, and the mixtures transferred to 37° C. to initiate the reaction (total volume=150 μl). […]

Assay [1] deals with retinoid nuclear receptors (RAR and RxR). The assay is described as follows: Retinoid nuclear receptor activity.

What is called IC50 is the concentration needed to halve the response being measured. Read a low IC50 as greater potency. As to `CCCC(O)(CCC)CCc1cccc(CCCN)c1` [Example 3, 4-(3-(3-aminopropyl)phenethyl)heptan-4-ol], at visual cycle isomerase, the concentration for half-maximal inhibition (IC50) is at most 1 µM.

With `NCCCc1cccc(CCC2(O)CCCCC2)c1` [Example 7, 1-(3-(3-aminopropyl)phenethyl)cyclohexanol], the IC50 at visual cycle isomerase is at most 1 µM. The “effects on retinoid nuclear receptors (RAR and RxR)” value (“effects” below) in assay [1] was “did not show significant effects”.

Consider `CCCC(O)(CCC)CCc1cccc(OCCN)c1` [Example 9, 4-(3-(2-aminoethoxy)phenethyl)heptan-4-ol], for which, at visual cycle isomerase, the IC50 is at most 1 µM.

Turning to `NCCOc1cccc(CCC2(O)CCCCCC2)c1` [Example 10, 1-(3-(2-aminoethoxy)phenethyl)cycloheptanol], the IC50 at visual cycle isomerase was at most 1 µM.

Regarding `NCCOc1cccc(CCC2(O)CCSCC2)c1` [Example 11, 4-(3-(2-aminoethoxy)phenethyl)tetrahydro-2H-thiopyran-4-ol], on visual cycle isomerase, the IC50 is at most 1 µM.

At visual cycle isomerase, `NCCOc1cccc(CCC2(O)CCCCC2)c1` [Example 12, 1-(3-(2-aminoethoxy)phenethyl)cyclohexanol] yielded an IC50 of at most 1 µM. In assay [1], the “effects” value is recorded as “did not show significant effects”.

`NCCC(O)c1cccc(CCC2(O)CCCCC2)c1` (stereo not drawn) [Example 15, 1-(3-(3-amino-1-hydroxypropyl)phenethyl)cyclohexanol] gave an IC50 on visual cycle isomerase of at most 1 µM.

Consider `NCCC(O)c1cccc(CCC2(O)CCCCCC2)c1` (stereo not drawn) [Example 16, 1-(3-(3-amino-1-hydroxypropyl)phenethyl)cycloheptanol], for which the IC50 on visual cycle isomerase was at most 1 µM. Further, the “effects” value in assay [1] is on record as “did not show significant effects”.

Turning to `NCCC(O)c1cccc(CCC2CCCC2)c1` (stereo not drawn) [Example 17, 3-amino-1-(3-(2-cyclopentylethyl)phenyl)propan-1-ol], the IC50 against visual cycle isomerase was at most 1 µM.

`CCCC(O)(CCC)CCc1cccc(C(O)CCN)c1` (stereo not drawn) [Example 19, 4-(3-(3-amino-1-hydroxypropyl)phenethyl)heptan-4-ol]: the IC50 at visual cycle isomerase was at most 1 µM.

Take `NCCCc1cccc(CCC2(O)CCCCCC2)c1` [Example 20, 1-(3-(3-aminopropyl)phenethyl)cycloheptanol]: the half-maximal inhibitory concentration (IC50) on visual cycle isomerase is at most 1 µM. In addition, the “effects” value in assay [1] was “did not show significant effects”.

As for `CCCCCc1cccc(CCCN)c1` [Example 27, 3-(3-pentylphenyl)propan-1-amine], at visual cycle isomerase, the half-maximal inhibitory concentration (IC50) is at most 1 µM.

Consider `CC(C)(C)CCc1cccc(CCCN)c1` [Example 29, 3-(3-(3,3-dimethylbutyl)phenyl)propan-1-amine], for which, at visual cycle isomerase, the IC50 is at most 1 µM.

The molecule `NCCCc1cccc(CCCCc2ccccc2)c1` [Example 35, 3-(3-(4-phenylbutyl)phenyl)propan-1-amine] displayed a half-maximal inhibitory concentration (IC50) against visual cycle isomerase of at most 1 µM.
